From paper PMC6527222 (PLoS ONE, 2019)
Several values for one entry are separate records, joined by “and”; a condition that tells them apart may be missing. Equal entries are not always repeated. Where two headings read alike, the source gives them in different places.

What was measured:
JB6 P+ cells [1] = test: MTS cell proliferation assay; assay type: cell-based, mouse; settings: two weeks
Protocol: Cell viability was determined by the addition of MTS reagent according to the manufacturer’s protocol (Promega, Madison, WI) and absorbance was measured using a Bio-Tek μQuant plate reader with KCJunior software. […] Normalization allowed for comparison of data over a range of JB6 P+ cell cultures, passages, and experimental time for the shRNA studies, as well as control for variation in the EGF response, and importantly allowed for a direct comparison to all concentration-response experiments including the toxicity assays. Data are expressed as mean ± SD and were analyzed using GraphPad Prism version 7.02 (La Jolla, CA). All group sizes were determined via previous studies to provide statistically meaningful data. In the soft agar assays, key results were repeated with different JB6 P+ cells to confirm the results. Similarly, the shRNA studies were conducted with three independent concentration-response curves with different JB6 P+ cell stocks. Statistical analysis of raw data was conducted with NCSS 2007 (Kaysville, UT). For two sample comparisons a t-test was utilized, and when comparing multiple samples a One-, Two-, or Three-Factor ANOVA followed by Tukey-Kramer post hoc test was utilized depending on the data. For all tests, statistical difference was donated when p < 0.05.

JB6 P+ cells [2] = test: Soft agar assay with competitive adrenergic receptor antagonists; assay type: cell-based; settings: Mus musculus, alone
Protocol: Ten ng/mL EGF was used to promote the anchorage-independent growth of JB6 cells. […] Plates were incubated at 37°C, 5% CO2 for 14 days. Colonies with greater than ten cells were counted manually under a microscope. Antagonists identified in our assays as ineffective at blocking EGF-mediated transformation of JB6 P+ cells yet displaying no or little toxicity were used as competitive antagonists towards carvedilol-mediated prevention of EGF-induced transformation of JB6 P+ cells.

JB6 P+ cells [3] = test: Modified seven-day soft agar assay in shRNA lentivirus infected JB6 P+ cells; assay type: cell-based, mouse; settings: for IC50: Mus musculus
Protocol: Knockdown of the β2-AR via the Adrb2 shRNA lentivirus was examined via seeding 1x10^4 JB6 P+ cells/well of a 6-well plate in standard growth media (see above). 24 hr after seeding, the growth media was removed from attached cells and replaced with 2 ml EMEM containing 4% heat-inactivated FBS without antibiotics and […] polybrene. 1.5 ml lentiviral shRNA stocks of either Adrb2 or scrambled control were added to appropriate wells and plates were centrifuged at 1,000 g at room temperature for 1 hr. Following centrifugation, media was replaced with 3 ml EMEM lacking antibiotics and grown at 37°C. After 2, 3, 7, and 10 days of growth, cells were trypsinized, collected and centrifuged at 300g for 5 min. Cells were washed with 1 ml PBS, and RNA was extracted using Qiagen’s RNeasy Mini kit. RNA was reverse transcribed into cDNA using Applied Biosystems cDNA reverse transcription kit (Invitrogen) and stored at -20°C for future use.
β2-AR shRNA lentivirus infected JB6 P+ cells were utilized in modified anchorage-independent growth assays in soft agar. The procedure was shortened to seven days because the shRNA-mediated β2-AR knockdown persisted up to ten days. Infection of the cells occurred as described in the verification of effective shRNA-mediated β2-AR knockdown, and the cells were grown for three days, then they were added to the agar as described in the anchorage-independent growth assays in soft agar section. The colonies were counted after seven days in culture; thus, matching the ten days of β2-AR knockdown.

[4] = system: hairless mice (UV-induced skin thickening); test: Eight dose UV exposure, bi-folded epidermal thickness in hairless wild type and β2-AR knockout mice; assay type: in vivo, mouse; settings: 5 μM in 200 μL acetone topically every other day, 200 mJ/cm^2 UV, eight irradiations
Protocol: The Western University of Health Sciences’ Institutional Animal Care and Use Committee (WesternU IACUC) approved all animal studies prior to initiating any experiments. The animal studies were carried out under WesternU IACUC recommendations and guidelines, which follow NIH guidelines. Mice had access to water and food ad libitum and housed on a 12-hour light/dark cycle with 35% humidity. Homozygous β1-AR and β2-AR null mice (Adrb1^tm1Bkk Adrb2^tm1Bkk/J Stock Number 003810) were purchased from Jackson Laboratory (Bar Harbor, ME); the double knockout mice were characterized previously. The double knockout mice were bred with C57BL/6J from Jackson Lab to generate a heterozygous F1 generation. The F1 generation was bred together to generate the F2 generation of which 1/16th of the offspring were a β2-AR knockout mouse. SKH-1 mice purchased from Charles River (Wilmington, MA) were bred with the β2-AR knockout mice generating a second heterozygous F1 generation. The F1 generation was bred together to generate the F2 generation of which 1/16th of the offspring were a hairless β2-AR knockout mouse. The F2 generation was backcrossed with a new batch of SKH-1 from Charles River to generate mice more efficiently. The mice used in this study are 75% SKH-1 and 25% mixed background. Following experimentation, and to cull the unused mice in a colony, mice were euthanized via exposure to 32% Isoflurane followed by cervical dislocation to ensure euthanization prior to disposal.
The first two weeks were pretreatment and the second two weeks were during the UV irradiation procedure, but drugs were applied the day after UV exposure to avoid sunscreen effects. All groups involved with UV were irradiated with 200 mJ/cm^2 dose of UV every other day for a total of eight irradiations. Bi-folded epidermal thickness was measured using a digital caliper before drug treatment on non-radiation days. Three skin thickness measurements were taken along the left, middle, and right dorsal epidermal layer, and the mean thickness was recorded for each mouse.

JB6 P+ cells [5] = settings: previous data, cited from earlier work
β2-AR = system: β2-AR; design: method as in as printed in each cell (43-46, 48-54, 56-58); settings: as described in the references; ref (43-46, 48-54, 56-58); cited from earlier work
α1D-AR = settings: read-out: Kd towards the α1D-AR; cited from earlier work
[6] = carvedilol cohort versus non-carvedilol cohort; cited from earlier work
A549, lung tumor, cells = settings: cited from earlier work

IC50 (JB6 P+ cells [2]; CGP 12177 experiment (Fig 5B)): 0.331 µM
IC50 (JB6 P+ cells [2]; HEAT HCl experiment (Fig 5C)): 0.275 µM
IC50 (JB6 P+ cells [2]; nadolol experiment (Fig 5A)): 0.282 µM
IC50 (JB6 P+ cells [3]; 168 h, independent experiments 1-3, seven days, read-out: ardb2 shRNA Mean logIC50 (converted)): 0.718 µM
IC50 (JB6 P+ cells [3]; 168 h, scrambled control shRNA, three experiments combined (Fig 6B), seven days, read-out: LogIC50 (converted)): 0.813 µM
IC50 (JB6 P+ cells [3]; 168 h, β2-AR-targeted shRNA, three experiments combined (Fig 6B), seven days, read-out: LogIC50 (converted)): 1 µM
IC50 (JB6 P+ cells [3]; line Mean, read-out: Scrambled shRNA Mean logIC50, mean of three experiments (converted)): 0.714 µM
IC50 (JB6 P+ cells [3]; line Mean, read-out: ardb2 shRNA Mean logIC50, mean of three experiments (converted)): 0.979 µM
Compound: COc1ccccc1OCCNCC(O)COc1cccc2[nH]c3ccccc3c12 (stereo not shown) [Carvedilol]
toxicity (cell viability), words (JB6 P+ cells [1]; 100 μM): maximum toxicity
toxicity (cell viability), words (JB6 P+ cells [1]; concentrations lower than 10 μM): did not affect cell viability
ardb2 shRNA Mean logIC50 (JB6 P+ cells [3]; independent experiments 1-3, seven days): -5.965 log [M] and -5.917 log [M]
effect on UV-induced skin thickening, words ([4]; wild type mice): statistical difference from the UV control on day 8 onward
effect on UV-induced skin thickening, words ([4]; β2-AR knockout mice): greater effects in the knockout mice
effect on EGF-mediated transformation of JB6 P+ cells, words (JB6 P+ cells [5]): completely prevents
IC50 (JB6 P+ cells [5]; read-out: IC50, inhibition of EGF-mediated transformation): 0.782 µM
Pharmacological property at β2-AR (β2-AR): Biased agonist/ partial ERK agonist [43, 44]
Kd (α1D-AR): 0.0012 µM
reduction in the incidence of all types of cancer [6]: 26%
reducing the growth of injected A549 cells in vivo, words (A549, lung tumor, cells): not effective
